Here are results for five compounds from US20260364184A1, “COMPOUND BASED ON OXOISOINDOLINYL-SUBSTITUTED TETRAHYDROPYRIMIDINE-DIONE AND USE THEREOF” (GLUETACS THERAPEUTICS (SHANGHAI) CO., LTD., priority 2023, published 2026).

Assay [1] relates to Human Acute T Lymphoblastic Leukemia Cells (Molt-4). Briefly: Inhibition of Molt-4 cell proliferation (CellTiter luminescent viability). It is filed as cell-based. The following applies: Homo sapiens, MOLT-4, 96 h, Table IH3, BCL-2 inhibitor-based, 96 hours; for inhibition at 0.01 µM: Molt-4, 10 nM, read-out: Inhibition Rate at 10 nM (%); for inhibition at 0.5 µM: Molt-4, 500 nM, read-out: Inhibition Rate at 500 nM (%).

Assay [2] deals with Human prostate cancer cell line (NCI-H358). Description: Inhibition of NCI-H358 cell proliferation (CellTiter luminescent viability). Particulars: Table IH1, BCL-2 inhibitor-based, 96 hours; for inhibition at 0.01 µM: NCI-H358, 10 nM, read-out: Inhibition Rate at 10 nM (%); for inhibition at 0.5 µM: NCI-H358, 500 nM, read-out: Inhibition Rate at 500 nM (%). Here is the method:
(§1) The tumor cells used herein were cultured in a cell culture medium listed in table 3 at 37 °C in an incubator with 5% CO2. Prior to experimentation, all cell lines used were correctly identified by STR profiling, and tested negative for mycoplasma contamination using a mycoplasma detection kit through routine screenings.
(§2) The IC50 values of the compounds of the present disclosure (including the compounds in Table 1, Table 2, and Examples 1-468) were determined using the CellTiter-Meiluncell Luminescent Cell Viability Assay Kit from Dalian Meilun Biotech Co., Ltd. The detailed procedure is as follows: Tumor cells were seeded in 96-well cell culture plates at the densities specified in Table 4. On the following day, the test compounds of the present disclosure were subjected to serial dilution. The dilution can be performed according to one of the following two methods: • (1) The first dilution method: The test compounds of the present disclosure (including the compounds in Table 1, Table 2, and Examples 1-468) were subjected to 5-fold serial dilutions starting from a highest concentration of 2000 μM, resulting in a total of 9 concentrations from high to low (2000, 400, 80, 16, 3.2, 0.64, 0.128, 0.0256, 0.00512 μM). Subsequently, 0.5 μL of the test compound dilution was transferred into the 96-well plate containing the cells, with each well containing 100 μL of cell culture medium. […] Into the 96-well plate, the diluted test compounds and corresponding detection reagents were added, resulting in final test compound concentrations of 500 nM and 10 nM, respectively. The experimental procedure is described below using the diluted 2 μM test compound as an example.
(§3) 0.5 μL of the aforementioned diluted compound of the present disclosure (including the compounds in Table 1, Table 2, and Examples 1-468) was added to the seeded cells in 100 μL of medium, yielding a final test compound concentration of 10 nM. After the cells were treated with the compounds of the present disclosure for a specified period, the cell viability assay reagent was added to the culture medium according to the kit's instructions to determine cell viability. […] All controls were treated using the same procedure as the compounds of the present disclosure. The growth inhibition curves for the compounds of the present disclosure were plotted using Prism GraphPad software, and the IC50 values were calculated therefrom.

In assay [3] the test system is Human acute lymphocytic leukemia T lymphocytes cell line (CCRF-CEM). Briefly: Inhibition of CCRF-CEM cell proliferation (CellTiter luminescent viability). It is filed as cell-based. The following applies: Homo sapiens, 96 h, Table IH2, BCL-2 inhibitor-based; for inhibition at 0.01 µM: 10 nM, read-out: Inhibition Rate at 10 nM (%); for inhibition at 0.5 µM: 500 nM, read-out: Inhibition Rate at 500 nM (%).

The subject of assay [4] is Human neuroblastoma cell line (SK-N-AS). Briefly: Inhibition of SK-N-AS cell proliferation (CellTiter luminescent viability). It is filed as cell-based. Particulars: Table IK1, AKT inhibitor-based, 96 hours; for inhibition at 0.01 µM: 10 nM, read-out: Inhibition Rate at 10 nM (%); for inhibition at 0.5 µM: 500 nM, read-out: Inhibition Rate at 500 nM (%). The procedure:
as §1, §2, §3

For a further assay, the system named is AKT. Description: Western blot degradation of AKT. It is filed as cell-based. The following applies: hPBMC Cell; 24 hours. The procedure: Conventional Western blot assay was performed to evaluate the effects of the compounds of the present disclosure on the expression of target proteins in cells.
(1) Cell Seeding and Protein Harvesting: The selected cells were processed according to the cell seeding procedure and protein harvesting procedure in Table II-2.
(2) To the collected supernatant, 5×SDS sample loading buffer was added, followed by denaturation at 95 °C for 5 minutes. The denatured samples were then separated by SDS-PAGE electrophoresis on a polyacrylamide gel. Proteins were transferred to a nitrocellulose membrane (0.45 μm NC membrane), blocked with blocking buffer at room temperature for 1 hour, and subjected to antibody incubation and development procedures according to the antibody manufacturer's instructions (Cell Signaling Technology).
Half-Maximal Degradation Concentration value (the drug concentration required for degrading proteins by 50%, abbreviated as DC50) reads method: comparing the grayscale values of Western blot bands from drug-treated samples with those from blank DMSO-treated controls, and identifying the drug concentration range at which the grayscale value is half that of the DMSO-treated control bands.
DC50 values can be calculated using ImageJ software to measure grayscale values of Western blot bands from drug-treated samples. The concentration-response curve is fitted to estimate the drug concentration corresponding to half the grayscale value.
Target protein remaining (%) refers to the percentage of target protein remaining in cells after treatment with protein degrader compounds.
Calculation method for target protein remaining (%): Use ImageJ software to measure grayscale values of Western blot bands from drug (protein degrader)-treated samples. The grayscale value of drug-treated bands is divided by that of internal control protein bands, and the resulting quotient is normalized to obtain the relative percentage of remaining target protein after protein degrader treatment.
Target protein degradation rate (%)=1−target protein remaining (%).
In general terms: In western blotting, separated proteins are transferred to a membrane and probed.

Assay [5] addresses T1, human Cereblon WT GST-tagged protein (CRBN) (Homo sapiens, UniProt Q96SW2).
T1 construct: purchased CISBIO 64BDCRBNPEH
Description: CRBN binding by HTRF (Cereblon binding kit). In a few lines:
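GST-tagged human Cereblon WT was incubated 3 h at room temperature with compound, thalidomide-Re tracer and Eu anti-GST antibody. Final compound concentrations were 10 to 0.00064 µM (7 points) or 2 and 0.5 µM. Inhibition rate was calculated from HTRF 665/620 nm ratios versus solvent and blank controls.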
(In TR-FRET formats the signal depends on donor and acceptor labels being close together.)

T1 sequence (Q96SW2 whole entry): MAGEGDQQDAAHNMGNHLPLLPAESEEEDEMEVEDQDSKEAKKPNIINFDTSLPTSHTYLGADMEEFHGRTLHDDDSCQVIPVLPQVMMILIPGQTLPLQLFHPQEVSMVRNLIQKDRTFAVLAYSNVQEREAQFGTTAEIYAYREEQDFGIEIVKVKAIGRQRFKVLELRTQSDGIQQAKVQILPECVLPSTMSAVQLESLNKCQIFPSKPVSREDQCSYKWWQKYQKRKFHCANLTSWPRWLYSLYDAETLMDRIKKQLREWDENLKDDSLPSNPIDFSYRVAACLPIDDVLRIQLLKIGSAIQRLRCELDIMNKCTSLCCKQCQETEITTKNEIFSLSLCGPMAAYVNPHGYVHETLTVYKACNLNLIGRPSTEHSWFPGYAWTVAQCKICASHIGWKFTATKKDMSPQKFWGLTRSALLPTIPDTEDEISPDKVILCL

As usually defined, the inhibition is the drop in the measured response relative to a control, in per cent. Turning to `CC1(C)CCC(CN2CCN(c3ccc(C(=O)NS(=O)(=O)c4ccc(NCC5CCOCC5)c([N+](=O)[O-])c4)c(Oc4cnc5[nH]ccc5c4)c3)CC2)=C(c2ccc(Cl)cc2)C1` [ABT-199, Venetoclax, reference compound], the inhibition at 0.01 µM in assay [1] was -5 to 0%; in assay [2] it was 5 to 10%; in assay [3], -5 to 0%. Further, the results for the inhibition at 0.5 µM in assay [1], in assay [2] and in assay [3] were 30 to 40%, 5 to 10% and -5 to 0%, respectively.

As for `CC1(C)CCC(c2ccc(Cl)cc2)=C(CN2CCN(c3ccc(C(=O)NS(=O)(=O)c4ccc(N[C@H](CCN5CC6CCC(C5)N6Cc5ccc6c(c5)CN(N5CCC(=O)NC5=O)C6=O)CSc5ccccc5)c(S(=O)(=O)C(F)(F)F)c4)cc3)CC2)C1` [GT-07813, 4-(4-((4′-chloro-4,4-dimethyl-3,4,5,6-tetrahydro-[1,1′-biphenyl]-2-yl)methyl)piperazin-1-yl)-N-((4-(((2R)-4-(8-((2-(2,4-dioxotetrahydropyrimidin-1(2H)-yl)-1-oxoisoindolin-5-yl)methyl)-3,8-diazabicyclo[3.2.1]octan-3-yl)-1-(phenylthio)butan-2-yl)amino)-3-((trifluoromethyl)sulfonyl)phenyl)sulfonyl)benzamide], the values for the inhibition at 0.01 µM in assay [1], in assay [2] and in assay [3] were 10 to 15%, 15 to 20% and 5 to 10%, respectively. In addition, the inhibition at 0.5 µM fell in the range of 80 to 100% in assay [1], 20 to 30% in assay [2] and 60 to 70% in assay [3].

With `Cn1ncc(Cl)c1-c1cc(C(=O)N[C@H](CNCc2ccc3c(c2)CN(N2CCC(=O)NC2=O)C3=O)Cc2ccc(F)c(F)c2)oc1Cl` [GT-08574, (S)-5-chloro-4-(4-chloro-1-methyl-1H-pyrazol-5-yl)-N-(1-(3,4-difluorophenyl)-3-(((2-(2,4-dioxotetrahydropyrimidin-1(2H)-yl)-1-oxoisoindolin-5-yl)methyl)amino)propan-2-yl) furan-2-carboxamide], in assay [4], the inhibition at 0.01 µM was 5 to 10% and the inhibition at 0.5 µM is 20 to 30%. Further, the “Degradation of substrate protein AKT (substrate protein remaining %)” value (“Degradation … (substrate protein remaining %)” below) with AKT was “A (0%≤substrate protein remaining %≤80%)”.

On to `Cn1ncc(Cl)c1-c1cc(C(=O)N[C@@H](Cc2cccc(F)c2)CN2CCN(Cc3ccc4c(c3)CN(N3CCC(=O)NC3=O)C4=O)CC2)sc1Cl` [GT-08576, (S)-5-chloro-4-(4-chloro-1-methyl-1H-pyrazol-5-yl)-N-(1-(4-((2-(2,4-dioxotetrahydropyrimidin-1(2H)-yl)-1-oxoisoindolin-5-yl)methyl)piperazin-1-yl)-3-(3-fluorophenyl)propan-2-yl)thiophene-2-carboxamide], for which, in assay [4], the inhibition at 0.01 µM lay within 15 to 20% and the inhibition at 0.5 µM was in the range of 20 to 30%. The “Degradation … (substrate protein remaining %)” value in the assay with AKT is “A (0%≤substrate protein remaining %≤80%)”.

Consider `Cn1ncc(Cl)c1-c1cc(C(=O)N[C@H](CNCC2CCN(c3ccc4c(c3)C(=O)N(N3CCC(=O)NC3=O)C4=O)CC2)Cc2ccc(F)c(F)c2)oc1Cl` [GT-08584, (S)-5-chloro-4-(4-chloro-1-methyl-1H-pyrazol-5-yl)-N-(1-(3,4-difluorophenyl)-3-(((1-(2-(2,4-dioxotetrahydropyrimidin-1(2H)-yl)-1,3-dioxoisoindolin-5-yl)piperidin-4-yl)methyl)amino)propan-2-yl) furan-2-carboxamide], for which the inhibition at 0.5 µM in assay [5] (0.5 μM, read-out: Inhibition Rate at 0.5 μM (%)) was in the range of 10 to 20%. In addition, in assay [5] (2 μM, read-out: Inhibition Rate at 2 μM (%)), the inhibition at 2 µM lay in the range of 53 to 60%. The “Degradation … (substrate protein remaining %)” value with AKT is reported as “A (0%≤substrate protein remaining %≤80%)”.
